Experimental data from patent publication US9408891B2, “Methods of using gelsolin to treat or prevent bacterial sepsis” (priority 2003, dated 2016).
“Also recorded” adds a separate entry of the source.

How the values were obtained:
[1] = test system: actin-binding proteins; details: Yamamura et al., FEBS Lett. 1996; cited from earlier work
[2] = biological target: T1, gelsolin (Homo sapiens, UniProt P06396); experiment: Actin severing activity of gelsolin (50 nM) with LTA or lysolipids; type: biochemical
Protocol: The tested gelsolin concentration was 50 nM; LTA ranged from 0-50 μM; Pyrene-F-actin was 0.3 μM. Recording changes in fluorescently-labeled (rhodamine B-labeled) gelsolin peptide PBP10 (10 μM), indicates a specific interaction between gelsolin and LTA.

[3] = biological target: T1, gelsolin; details: Goetzl et al. 2000; cited from earlier work
[4] = test system: binding of LPS-binding protein (LBP) to LPS; experiment: Competition of gelsolin with 125I-LBP for LPS-coated wells (solid phase); details: nanomolar concentrations of gelsolin
Protocol: (§1) To determine competition between gelsolin and LPS-binding proteins (LPB), a high affinity carrier for LPS, the LPS-coated wells (1 nmole/per well of LPS Re-595 from Salmonella minnesota) were saturated by incubation (2 hours, 20° C.) with gelsolin 2 mg/ml in RPMI), washed and preincubated with different amount of recombinant human gelsolin (0-2 ng/well) in […] (0.5 mg/ml) containing RPMI. RPMI medium refers to Roswell Park Memorial Institute medium, typically used to culture human lymphoid cells. Then, 10 μl of ^125I-LPB (6×10^4 cpm) were added, and the plates were incubated for 90 minutes at 37° C., then washed six times with RPMI. After that, the bound radioactivity was measured.

[5] = test system: human aortic endothelial cells (HAEC); experiment: LPS-induced actin cytoskeleton disassembly, phalloidin staining, endothelial cells; type: cell-based; details: 2 μM (10 μg/ml) LPS preincubated with 1.8 μM (0.16 mg/ml) gelsolin, 10 min, listed as plasma gelsolin
Text: (§2) In light of the findings in the previous Examples, and using the materials prepared in above, the effect of the gelsolin binding by LPS was studied to determine the effect on cellular responses in vitro. Cell cultures of human aortic endothelial cells (HAEC) and rat primary astrocytes were used to evaluate the effect of LPS on actin. Both of these cell types have mCD14 (membrane bound C14) and TLR LPS receptors (Faure, et al., J. Biol. Chem. 275:11058-11063 (2000); Bsibsi, et al., J. Neuropathol. Exp. Neurol. 61:1013-1021 (2002); Bowman, et al., Glia 43:281-291 (2003)).
HAECs (primary human aortic endothelial cells) (ATCC, Rockville, Md. or Clonetics, San Diego, Calif.), will grow to confluence through passages 5-9 in endothelial cell growth medium supplemented with 2% fetal bovine serum, 10 μg/liter human recombinant epidermal growth factor, 1 mg/liter hydrocortisone, 50 μg/ml gentamicin, 50 ng/ml amphotericin-B, in a 37° C. humidified atmosphere of 95% air:5% C02.
(§3) HAECs and astrocytes cultures were incubated for 10 minutes in medium containing 10 μg/ml LPS alone, or LPS that had been pre-incubated with 0.16 mg/ml of human gelsolin. […] Location of transcription factor nuclear factor-kappaB (NF-κB) was observed using a monoclonal antibody to NF-κB (Molecular Probes), and cell nuclei were detected by counter-staining with 4′, 6-diamidino-2-phenylindole dihydrochloride (DAPI) (Sigma).

[6] = test system: rat primary astrocytes; experiment: LPS-induced actin cytoskeleton disassembly, phalloidin staining, astrocytes; type: cell-based; details: 2 μM (10 μg/ml) LPS preincubated with 1.8 μM (0.16 mg/ml) gelsolin, 10 min, listed as plasma gelsolin
Text: as §2
Rat primary astrocytes were obtained from prenatal rats and maintained for 14 days in culture before use. Embryos (E17-E19) were removed by caesarian section from a Sprague-Dawley rat and the hippocampi were surgically removed. The tissue was digested in trypsin/DNAse at 37° C., centrifuged (1000×5 min) and filtered to derive suspensions from each pup. […]
as §3

[7] = test system: LPS-binding protein (LBP); experiment: Binding of 125I-LBP to gelsolin-coated wells
Protocol: as §1, with “[…]),” for “the LPS-coated wells (1 nmole/per well of LPS Re-595 from Salmonella minnesota) were saturated by incubation (2 hours, 20° C.) with gelsolin 2 mg/ml in RPMI),”

[8] = test system: human neutrophils / human aortic endothelial cells (HAEC); experiment: Neutrophil adhesion to LTA-stimulated HAEC; type: cell-based; details: gelsolin 2 μM added along with LTA 10 μg/ml
Text: To investigate whether gelsolin can prevent gram-positive bacterial inflammation, the effect of LTA-mediated activation of human neutrophils was examined. Neutrophils were selected because their adhesion to human aorta endothelial cells (HAEC) is a hallmark of inflammation.
Neutrophils were isolated from human blood using the endotoxin-free Lympholyte-poly kit (Cedarlane, Ontario, Canada). The isolated neutrophil cells were resuspended in RPMI media. […] To quantify the adhesion, the neutrophils were labeled with calcein-AM (5 μM for 30 minutes at 37° C.).

[9] = test system: endotoxemic C57BL/6 mice (25 mg/kg LPS E. coli 055:B5 i.p.); experiment: Mortality study of mice challenged with lethal E. coli LPS and treated with GSN, BSA or saline; type: in vivo, mouse
Protocol: To study the effect on mortality, animals are injected i.p. with 25 mg/kg LPS (E. coli 055:B5, Sigma) and each mouse is randomly selected to receive one of the following three treatments: 1) GSN (containing: 8 mg of recombinant human plasma gelsolin (Biogen-IDEC, Inc) containing 1 mM Ca dissolved in 400 μl of 0.15 M NaCl (saline); or 2) BSA (containing: 8 mg of bovine albumin (Serologicals Proteins, Inc, Kankakee, Ill.) containing 1 mM Ca dissolved in 400 μl of saline, or 3) saline (containing only 400 μl saline). The GSN (gelsolin), BSA or saline solutions are administered subcutaneously at the dorsal surface of each animal immediately after LPS instillation, and then repeated at 24, 48, and 72 hours.
There are 9 mice in the saline group and 8 mice each in the GSN group and the BSA group. Animals are monitored frequently, and mortality is recorded and presented at an interval of days. Animal mortality study data are presented as Kaplan-Meier curves and log-rank test is used to analyze treatment impact on animal mortality. Ap-value less than 0.05 is considered significant.
To measure gelsolin in vivo, a nucleation assay for plasma gelsolin is performed as follows: the collected mouse plasma is diluted 1:5 in Buffer B (0.1 M KCI, 0.2 mM MgCl2, 1 mM EGTA (ethyleneglycol-bis(2-aminoethyl) N,N,N′,N′,-tetraacetic acid), 0.5 mM ATP, 0.5 mM β-mercaptoethanol, 10 mM Tris-HCl buffer, pH 7.4). From the diluted plasma sample, 5 μl is added to 280 μl Buffer B supplemented with 1.5 mm […] and 0.4 μM phallacidin in 6×50 mm borosilicate culture tubes. The actin polymerization reaction is initiated by adding 15 μl 20 μM pyrene-actin in Buffer A (0.5 mM ATP, 0.5 mM β-mercaptoethanol, 0.2 mM CaCl2 […] buffer, pH 7.4). Polymerization is monitored for 200 seconds in a spectrofluorimeter at excitation and emission wavelengths of 366 and 386 nm respectively. Gelsolin concentrations are estimated from a standard curve using recombinant human plasma gelsolin.

[10] = test system: NF-κB translocation in rat primary astrocytes; experiment: NF-κB translocation to the nucleus in astrocytes; type: cell-based; details: LPS preincubated with 1.8 μM gelsolin, 2 hour incubation
Protocol: Rat primary astrocytes were obtained from prenatal rats and maintained for 14 days in culture before use. Embryos (E17-E19) were removed by caesarian section from a Sprague-Dawley rat and the hippocampi were surgically removed. The tissue was digested in trypsin/DNAse at 37° C., centrifuged (1000×5 min) and filtered to derive suspensions from each pup. Cells were grown in an incubator at 37° C. and 5% CO2 in DMEM (Dulbecco's Modified Eagle's Medium; BioWhittaker/Cambrex BioScience, East Rutherford, N.J.), supplemented with Ham's F12 (Sigma-Aldrich, St. Louis, Mo.) and 5% fetal bovine serum (FBS) (Hyclone, Logan, Utah) for 7 days, followed by an additional 7 days in Neurobasal medium (Gibco, Grand Island, N.Y.) also supplemented with 5% FBS, 2 mM l-glutamine, 50 μg/ml streptomycin and 50 U/ml penicillin. In each experiment, the medium was changed to serum-free at 6-12 hours prior to addition of LPS, TNF-α, or gelsolin.
HAECs and astrocytes cultures were incubated for 10 minutes in medium containing 10 μg/ml LPS alone, or LPS that had been pre-incubated with 0.16 mg/ml of human gelsolin. Cultures were fixed with ice-cold methanol and immunostained for F-actin with fluorescein isothiocyanate (FITC)-labeled phalloidin (Molecular Probes, Eugene, Oreg.). In astrocyte cultures, NF-κB translocation was manipulated by a 2 hour incubation in serum-free medium containing one of the following: 10 ng/ml TNF-α, 10 μg/ml LPS alone, or LPS that had been preincubated with 0.16 mg/ml human gelsolin. Location of transcription factor nuclear factor-kappaB (NF-κB) was observed using a monoclonal antibody to NF-κB (Molecular Probes), and cell nuclei were detected by counter-staining with 4′, 6-diamidino-2-phenylindole dihydrochloride (DAPI) (Sigma).

[11] = biological target: T2, pyrene-labeled SEQ ID No:1 (gelsolin residues 160-169) (Homo sapiens, UniProt P06396); experiment: Pyrene excimer fluorescence of pyrene-labeled SEQ ID No:1 after adding lipids; type: binding; details: 2 μM pyrene peptide
T2 construct: made in house; host or cells: solid phase peptide synthesis
Protocol: (§4) Therefore, to determine changes of gelsolin OD at 280 nm, different amounts of LPS, LPA and PS were added to recombinant human gelsolin (rhGLS) solutions and OD emission spectra were recorded using spectrophotometer Genesys 6 (Thermo-Spectronic, USA).
Interaction of LPS and gelsolin was examined using rhodamine B- and pyrene-labeled SEQ ID No:1 (QRLFQVKGRR). The effect of LPS on gelsolin was determined in terms of the rhodamine-B fluorescent changes of PBP10 peptide in the presence of different lipids (FIG. 1C); and the fluorescence emission spectra of pyrene-labeled SEQ ID No:1 (2 μM) in the presence of LPS from Escherichia coli (1.2 μM), PIP2 (0.82 μM) and LPA (0.82 μM) (FIG. 1D) The results using the pyrene-derivatized gelsolin peptide confirmed the LPS induced clustering of the peptide with resulting excimer fluorescence of the pyrene group, which was evident as a large increase in fluorescence emission at 480 nm.

[12] = biological target: T3, recombinant human gelsolin (rhGLS) (Homo sapiens, UniProt P06396); experiment: Change of gelsolin OD at 280 nm after adding lipids; type: binding; details: OD 280 nm
T3 construct: purchased Biogen IDEC, Inc., Cambridge, Mass; host or cells: E. coli
Protocol: as §4

[13] = biological target: T3, recombinant human gelsolin (rhGLS); experiment: Actin filament severing activity of purified gelsolin (pyrene F-actin depolymerization); type: biochemical; details: molar basis comparison
Protocol: To determine gelsolin's severing activity, rates of fluorescence decrease were evaluated during depolymerization. Monomeric G-actin was prepared from an acetone powder of rabbit skeletal muscle according to previously published methods (Spudich et al., J. Biol. Chem […]). The non-polymerizing solution contained 2 mM TRIS, 0.2 mM CaCl2, 0.5 mM ATP (adenosine triphosphate), 0.2 mM DTT (dithiothreitol) pH 7.4. Actin was polymerized by adding 150 mM KCl and 2 mM MgCl2 to the G-actin solutions and incubating for 1 hour at room temperature.
For F-actin severing assays, in general, a small volume (typically 5 μl) of the gelsolin composition is added to a similar volume of pyrene-labeled F-actin at a concentration adjusted to provide an actin:gelsolin ratio of approximately 10:1 (typically 1 μM gelsolin and 10 μM actin). This mixture is the diluted to 0.5 μM in a larger volume of F-actin buffer, and the filament severing efficiency is calculated from the initial slope of the fluorescence change. This reflects the rate of depolymerization that, in turn, is proportional to the number of cuts made by gelsolin. The LPS/gelsolin reaction can be done under any ionic condition, and the addition to F-actin requires the presence of […] Ca^2+ to activate the gelsolin. […] The actin nucleation reaction is similar except that in the latter case, the gelsolin/LPS mixture is added to a more dilute solution of G-actin (typically, 1 or 2 μM) in low ionic strength buffer followed immediately by addition of 150 mM KCI and 2 mM MgCl2 to initiate polymerization.
As shown, recombinant human gelsolin (rhGLS) (FIG. 4A) and blood serum (FIG. 4B) severing activity was measured in 0.4 μM pyrene-labeled F-actin samples (polymerized with 50% pyrene-labeled G-actin), after adding gelsolin (16 nM)/serum (2.5 μl), or their combination with one of the following: LPS (from different species), PIP2 (phosphatidyl-inositol-4,5-bisphosphate), LPA (lysophosphatidic acid), lipid A (the LPS derivative lacking polysaccharide) or PS (phosphatidylserine). The fluorescence intensity of F-pyrene actin was then monitored for 10 minutes, and the severing activity was calculated based on decreasing fluorescence. Severing activity was determined from a decrease in rate of fluorescence during depolymerization, and the depolymerization rate was calculated from the slope of the early decrease in fluorescence.

T1 sequence (P06396 28-782): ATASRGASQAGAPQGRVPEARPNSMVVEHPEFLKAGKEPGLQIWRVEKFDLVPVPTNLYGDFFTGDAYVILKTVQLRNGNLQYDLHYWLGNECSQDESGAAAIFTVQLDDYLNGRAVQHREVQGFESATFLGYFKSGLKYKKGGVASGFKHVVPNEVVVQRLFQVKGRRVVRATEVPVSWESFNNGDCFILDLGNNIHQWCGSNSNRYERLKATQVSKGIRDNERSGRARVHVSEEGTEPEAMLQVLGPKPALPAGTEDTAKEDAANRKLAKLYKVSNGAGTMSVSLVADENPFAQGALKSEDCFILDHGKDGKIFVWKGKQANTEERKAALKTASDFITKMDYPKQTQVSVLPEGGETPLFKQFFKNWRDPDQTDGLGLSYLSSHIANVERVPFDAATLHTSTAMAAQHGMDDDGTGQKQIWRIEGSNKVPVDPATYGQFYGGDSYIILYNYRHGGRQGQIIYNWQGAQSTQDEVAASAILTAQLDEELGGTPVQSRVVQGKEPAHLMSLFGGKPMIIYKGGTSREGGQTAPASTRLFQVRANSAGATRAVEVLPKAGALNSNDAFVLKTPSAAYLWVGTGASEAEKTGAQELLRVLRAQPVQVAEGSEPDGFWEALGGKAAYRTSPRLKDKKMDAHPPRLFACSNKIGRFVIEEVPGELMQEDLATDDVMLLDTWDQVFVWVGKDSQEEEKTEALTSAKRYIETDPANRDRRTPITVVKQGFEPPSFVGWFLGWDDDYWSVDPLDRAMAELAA
T3 sequence (P06396 28-782): as above

CCCCCCCCCCCCC/C=C/[C@@H](O)[C@@H](N)COP(=O)(O)O [S1P, Sphingosine-1-phosphate]
maximal dissociation [1]: 10%
inhibition of gelsolin at higher lipid concentrations ([2]; above 1 μM): abrupt drop-off of activity
inhibition of gelsolin by lysolipids ([2]; lipid below 1 μM): at least as strongly as lysophosphatidic acid (LPA); also recorded: also inhibit gelsolin; also recorded: as least as strongly as LPA does
binding of S1P by gelsolin [3]: did not bind

gelsolin
inhibition of 125I-LBP binding to LPS coated wells [4]: 69±6%
effect of gelsolin-preincubated LPS on actin cytoskeleton [5]: no discernable effect on the actin cytoskeletons; also recorded: prevented LPS-induced actin cytoskeleton disassembly
effect of gelsolin-preincubated LPS on actin cytoskeleton [6]: no discernable effect on the actin cytoskeletons; also recorded: prevented LPS-induced actin cytoskeleton disassembly
direct binding of 125I-LBP to gelsolin-coated surfaces [7]: did not bind to gelsolin-coated surfaces; also recorded: does not interact directly with the LBP; also recorded: does not bind to gelsolin-coated surfaces
effect on neutrophil adhesion to LTA-stimulated HAEC [8]: inhibit neutrophil adhesion; also recorded: reduced to near baseline values; also recorded: prevents LTA activation of endothelial cells
survival compared to saline or BSA controls ([9]; 8 mg s.c. immediately after LPS and at 24, 48, 72 hours, listed as plasma gelsolin): rescues the endotoxemic mice; also recorded: markedly improved survival
condition of surviving mice ([9]; Day 7 / after 1 week): complete recovery
plasma gelsolin level restored in LPS-treated animals ([9]; s.c. administration): 200 µg/mL
blocking of LPS-induced NF-κB translocation [10]: completely blocked; also recorded: blocked LPS-induced translocation; also recorded: blocked by pre-incubation with gelsolin

phosphatidylserine [PS]
induction of pyrene excimer formation (emission 480 nm) [11]: had no effect
effect on absorbance of gelsolin [12]: had no effect
inhibitory effect on severing activity of purified gelsolin [13]: had no effect; also recorded: no inhibitory effect; also recorded: have no effect
